The values below come from US10981894B2, “Melanocortin subtype-2 receptor (MC2R) antagonists and uses thereof” (Crinetics Pharmaceuticals, Inc., priority 2018, dated 2021).

Chain of hMC2 receptor (Q01718 whole entry): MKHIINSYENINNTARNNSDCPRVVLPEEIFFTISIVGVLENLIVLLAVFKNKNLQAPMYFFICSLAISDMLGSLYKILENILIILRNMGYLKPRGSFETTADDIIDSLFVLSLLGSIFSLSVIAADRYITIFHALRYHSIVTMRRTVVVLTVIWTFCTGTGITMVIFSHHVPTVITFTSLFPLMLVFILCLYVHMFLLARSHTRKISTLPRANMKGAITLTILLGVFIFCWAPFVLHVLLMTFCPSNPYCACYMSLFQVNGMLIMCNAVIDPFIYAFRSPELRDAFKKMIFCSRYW
Chain of hMC2 receptor (Q8TCY5 whole entry partner): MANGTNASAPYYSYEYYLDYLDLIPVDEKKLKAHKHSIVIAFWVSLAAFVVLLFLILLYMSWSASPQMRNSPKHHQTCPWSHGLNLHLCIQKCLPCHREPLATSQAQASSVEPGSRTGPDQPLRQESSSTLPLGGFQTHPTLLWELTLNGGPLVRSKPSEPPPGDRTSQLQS

The target of this test is hMC2 receptor (Homo sapiens, UniProt Q01718). The experiment in a line: hMC2 membrane binding assay ([125I]ACTH (1-39) Tyr23, SPA). Details: scale not given here. To be noted: crude hMC2R membranes from CRE-bla-CHO-K1 cells expressing hMC2 receptor and hMRAP; [125I]ACTH (1-39) Tyr23 0.2 nM; 1.5 hours at room temperature; read-out: MC2R binding potency. In outline:
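CRE-bla-CHO-K1 membranes co-expressing hMC2 receptor and hMRAP, preincubated with WGA PVT SPA beads in pH 7.4 HEPES/MgCl2/CaCl2/0.2% BSA buffer. Compounds (typically 0–10,000 nM final) compete with 0.2 nM [125I]ACTH(1-39) Tyr23 for 1.5 h at room temperature. SPA counts give Ki by non-linear regression.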
`CCOc1ncccc1-c1ccc(N2CCN(C(=O)c3ccc(Cl)cc3C(F)(F)F)C[C@H]2CC)c(C(=O)N[C@@H]2CN3CCC2CC3)n1` [Compound 1-398, N-[(3S)-1-azabicyclo[2.2.2]octan-3-yl]-5-[(2R)-4-[4-chloro-2-(trifluoromethyl)benzoyl]-2-ethylpiperazin-1-yl]-2′-ethoxy-[2,3′-bipyridine]-6-carboxamide]: the Ki is < 0.01 µM.

Consider `CCOc1ncccc1-c1ccc(N2CCN(C(=O)c3ccc(Cl)cc3C(F)(F)F)C[C@H]2CC)c(C(=O)N[C@H]2CCNC2)c1F` [Compound 1-200, 6-[(2R)-4-[4-chloro-2-(trifluoromethyl)benzoyl]-2-ethylpiperazin-1-yl]-3-(2-ethoxypyridin-3-yl)-2-fluoro-N-[(3S)-pyrrolidin-3-yl]benzamide], for which the Ki was < 0.01 µM. `CCOc1ncccc1-c1ccc(N2CCN(C(=O)C34CCC(C(F)(F)F)(CC3)C4)C[C@H]2CC)c(C(=O)NC2CN(C)C2)n1` [Compound 1-394, 2′-ethoxy-5-[(2R)-2-ethyl-4-[4-(trifluoromethyl)bicyclo[2.2.1]heptane-1-carbonyl]piperazin-1-yl]-N-(1-methylazetidin-3-yl)-[2,3′-bipyridine]-6-carboxamide]: the Ki is < 0.01 µM. As to `CCOc1ncccc1-c1ccc(N2CCN(C(=O)c3ccc(Cl)cc3Cl)C[C@H]2CC)c(C(=O)NCCNC)c1F` [Compound 1-156, 6-[(2R)-4-(2,4-dichlorobenzoyl)-2-ethylpiperazin-1-yl]-3-(2-ethoxypyridin-3-yl)-2-fluoro-N-[2-(methylamino)ethyl]benzamide], the Ki is < 0.01 µM. Regarding `CCOc1ncccc1-c1ccc(N2CCN(C(=O)C3(c4ccccc4)CCC3)C[C@H]2CC)c(C(=O)N[C@@H]2CCNC2)n1` [Compound 1-353, 2′-ethoxy-5-[(2R)-2-ethyl-4-(1-phenylcyclobutanecarbonyl)piperazin-1-yl]-N-[(3R)-pyrrolidin-3-yl]-[2,3′-bipyridine]-6-carboxamide], the Ki is < 0.01 µM. Then `CCOc1ncccc1-c1ccc(N2CCN(C(=O)C3(C(F)(F)F)CCCCC3)C[C@H]2CC)c(C(=O)N[C@@H]2CCNC2)n1` [Compound 1-273, 2′-ethoxy-5-[(2R)-2-ethyl-4-[1-(trifluoromethyl)cyclohexanecarbonyl]piperazin-1-yl]-N-[(3R)-pyrrolidin-3-yl]-[2,3′-bipyridine]-6-carboxamide], with < 0.01 µM; and `CCOc1ncccc1-c1ccc(N2CCN(C(=O)N3CCC[C@H]3C(F)(F)F)C[C@H]2CC)c(C(=O)NC[C@H]2CCN2C)n1` [Compound 1-386, 2′-ethoxy-5-[(2R)-2-ethyl-4-[(2S)-2-(trifluoromethyl)pyrrolidine-1-carbonyl]piperazin-1-yl]-N-{[(2R)-1-methylazetidin-2-yl]methyl}-[2,3′-bipyridine]-6-carboxamide], with 0.01 to 0.1 µM. As for `CCOc1ncccc1-c1ccc(N2CCN(C(=O)c3ccc(Cl)cc3C(F)(F)F)C[C@H]2CC)c(C(=O)NC[C@@H]2CNCCO2)c1` [Compound 1-109, 2-[(2R)-4-[4-chloro-2-(trifluoromethyl)benzoyl]-2-ethylpiperazin-1-yl]-5-(2-ethoxypyridin-3-yl)-N-{[(2S)-morpholin-2-yl]methyl}benzamide], the Ki is < 0.01 µM. For the molecule `CCOc1ccccc1-c1ccc(N2CCN(C(=O)n3ccc4cc(F)cc(Cl)c43)C[C@H]2CC)c(C(=O)N[C@@H]2CCN(C)C2)n1` [Compound 1-430, 3-[(2R)-4-(7-chloro-5-fluoro-1H-indole-1-carbonyl)-2-ethylpiperazin-1-yl]-6-(2-ethoxyphenyl)-N-[(3R)-1-methylpyrrolidin-3-yl]pyridine-2-carboxamide], the Ki was < 0.01 µM. Turning to `CCOc1ccccc1-c1ccc(N2CCN(C(=O)c3ccc(Cl)cc3C(F)(F)F)C[C@H]2CC)c(C(=O)N[C@@H]2CCN(C)C2)n1` [Compound 1-206, 3-[(2R)-4-[4-chloro-2-(trifluoromethyl)benzoyl]-2-ethylpiperazin-1-yl]-6-(2-ethoxyphenyl)-N-[(3R)-1-methylpyrrolidin-3-yl]pyridine-2-carboxamide], the Ki was < 0.01 µM.

Take `CCOc1ncccc1-c1ccc(N2CCN(C(=O)C34CCC(CC3(F)F)C4(C)C)C[C@H]2CC)c(C(=O)N[C@@H]2CCNC2)n1` (stereo partly drawn) [Compound 1-354, 5-[(2R)-4-[2,2-difluoro-7,7-dimethylbicyclo[2.2.1]heptane-1-carbonyl]-2-ethylpiperazin-1-yl]-2′-ethoxy-N-[(3R)-pyrrolidin-3-yl]-[2,3′-bipyridine]-6-carboxamide]: the Ki is < 0.01 µM. Regarding `CCOc1ncccc1-c1ccc(N2CCN(C(=O)N3CCC[C@H]3C(F)(F)F)C[C@H]2CC)c(C(=O)N[C@@H]2CCN(C)C2)n1` [Compound 1-372, 2′-ethoxy-5-[(2R)-2-ethyl-4-[(2S)-2-(trifluoromethyl)pyrrolidine-1-carbonyl]piperazin-1-yl]-N-[(3R)-1-methylpyrrolidin-3-yl]-[2,3′-bipyridine]-6-carboxamide], the Ki is < 0.01 µM.

With `CCOc1ncccc1-c1ccc(N2CCN(C(=O)c3ccc(Cl)cc3C(F)(F)F)C[C@H]2CC)c(C(=O)NCCNC)c1` [Compound 1-46, 2-[(2R)-4-[4-chloro-2-(trifluoromethyl)benzoyl]-2-ethylpiperazin-1-yl]-5-(2-ethoxypyridin-3-yl)-N-[2-(methylamino)ethyl]benzamide], the Ki was < 0.01 µM. Take `CCOc1ncccc1-c1ccc(N2CCN(C(=O)c3ccc(Cl)cc3C(F)(F)F)C[C@H]2CC)c(C(=O)N[C@@H]2CCN(C)C2)c1` [Compound 1-48, 2-[(2R)-4-[4-chloro-2-(trifluoromethyl)benzoyl]-2-ethylpiperazin-1-yl]-5-(2-ethoxypyridin-3-yl)-N-[(3R)-1-methylpyrrolidin-3-yl]benzamide]: the Ki was < 0.01 µM. `CCOc1ccccc1-c1ccc(N2CCN(C(=O)c3ccc(F)cc3C(F)F)C[C@H]2CC)c(C(=O)N[C@@H]2CCN(C)C2)n1` [Compound 1-293, 3-[(2R)-4-[2-(difluoromethyl)-4-fluorobenzoyl]-2-ethylpiperazin-1-yl]-6-(2-ethoxyphenyl)-N-[(3R)-1-methylpyrrolidin-3-yl]pyridine-2-carboxamide]: the Ki is < 0.01 µM. `CCOc1ncccc1-c1ccc(N2CCN(C(=O)c3ccc(F)cc3Cl)C[C@H]2CC)c(C(=O)NCCNC)c1F` [Compound 1-96, 6-[(2R)-4-(2-chloro-4-fluorobenzoyl)-2-ethylpiperazin-1-yl]-3-(2-ethoxypyridin-3-yl)-2-fluoro-N-[2-(methylamino)ethyl]benzamide]: the Ki was < 0.01 µM. `CCOc1ncccc1-c1ccc(N2CCN(C(=O)N3CCC[C@H]3C(F)(F)F)C[C@H]2CC)c(C(=O)N[C@H]2CCN(C)C2)n1` [Compound 1-373, 2′-ethoxy-5-[(2R)-2-ethyl-4-[(2S)-2-(trifluoromethyl)pyrrolidine-1-carbonyl]piperazin-1-yl]-N-[(3S)-1-methylpyrrolidin-3-yl]-[2,3′-bipyridine]-6-carboxamide]: the Ki is < 0.01 µM.

In the case of `CCOc1ncccc1-c1ccc(N2CCN(C(=O)N3CCc4cccc(C(F)(F)F)c43)C[C@H]2CC)c(C(=O)NC2CN(C)C2)n1` [Compound 1-418, 2′-ethoxy-5-[(2R)-2-ethyl-4-[7-(trifluoromethyl)-2,3-dihydro-1H-indole-1-carbonyl]piperazin-1-yl]-N-(1-methylazetidin-3-yl)-[2,3′-bipyridine]-6-carboxamide], the Ki was < 0.01 µM. With `CCOc1ncccc1-c1ccc(N2CCN(C(=O)OC(C(C)(C)C)C(F)(F)F)C[C@H]2CC)c(C(=O)N[C@@H]2CCNC2)n1` (single isomer, unassigned) [Compound 1-367, (2S*)-1,1,1-trifluoro-3,3-dimethylbutan-2-yl (3R)-4-(2′-ethoxy-6-{[(3R)-pyrrolidin-3-yl]carbamoyl}-[2,3′-bipyridin]-5-yl)-3-ethylpiperazine-1-carboxylate], the Ki is < 0.01 µM.

`CCOc1ncccc1-c1ccc(N2CCN(C(=O)C3(C(F)(F)F)CCCC3)C[C@H]2CC)c(C(=O)N[C@@H]2CN3CCC2CC3)n1` [Compound 1-400, N-[(3S)-1-azabicyclo[2.2.2]octan-3-yl]-2′-ethoxy-5-[(2R)-2-ethyl-4-[1-(trifluoromethyl)cyclopentanecarbonyl]piperazin-1-yl]-[2,3′-bipyridine]-6-carboxamide]: the Ki is < 0.01 µM.

As for `CCOc1ncccc1-c1ccc(N2CCN(C(=O)c3ccc(Cl)cc3Cl)C[C@H]2CC)c(C(=O)NCC2=NCCN2)c1F` [Compound 1-178, 6-[(2R)-4-(2,4-dichlorobenzoyl)-2-ethylpiperazin-1-yl]-N-[(4,5-dihydro-1H-imidazol-2-yl)methyl]-3-(2-ethoxypyridin-3-yl)-2-fluorobenzamide], the Ki is < 0.01 µM. As to `CCOc1ccccc1-c1ccc(N2CCN(C(=O)c3ccc(Cl)cc3C(F)(F)F)C[C@H]2CC)c(C(=O)NCCN)c1` [Compound 1-25, N-(2-aminoethyl)-4-[(2R)-4-[4-chloro-2-(trifluoromethyl)benzoyl]-2-ethylpiperazin-1-yl]-2′-ethoxy-[1,1′-biphenyl]-3-carboxamide], the Ki was < 0.01 µM. On to `CCOc1ncccc1-c1ccc(N2CCN(C(=O)c3ccc(OC)nc3C(F)(F)F)C[C@H]2CC)c(C(=O)NCCNC)n1` [Compound 1-187, 2′-ethoxy-5-[(2R)-2-ethyl-4-[6-methoxy-2-(trifluoromethyl)pyridine-3-carbonyl]piperazin-1-yl]-N-[2-(methylamino)ethyl]-[2,3′-bipyridine]-6-carboxamide], for which the Ki was < 0.01 µM. Then `CCOc1ccccc1-c1ccc(N2CCN(C(=O)c3ccc(Cl)cc3C(F)F)C[C@H]2CC)c(C(=O)N[C@@H]2CCN(C)C2)n1` [Compound 1-287, 3-[(2R)-4-[4-chloro-2-(difluoromethyl)benzoyl]-2-ethylpiperazin-1-yl]-6-(2-ethoxyphenyl)-N-[(3R)-1-methylpyrrolidin-3-yl]pyridine-2-carboxamide], with < 0.01 µM.
